{
  "source": "patent US20180049996A1",
  "about": "“THERAPEUTIC AGENT FOR CHRONIC RESPIRATORY DISEASE AND COMPOSITION FOR INHIBITING CARDIAC FIBROSIS” (NIPPON HYPOX LABORATORIES INCORPORATED, priority 2015, published 2018)",
  "system": "IL-5",
  "experiment": "IL-5 level in BAL fluid (ELISA), ovalbumin asthma model",
  "format": "in vivo, BALB/c female mice",
  "conditions": "HTHQ 20 and 40 mg/kg/day oral; compared to OVA group",
  "protocol": "6 week old BALB/c female mice were purchased and the mice were divided into 5 groups with 5 animals per group shown in Table 3 below after habituation breeding of about 2 weeks.\nThe test was conducted on the schedule of sensitization, causing diseases and administration of test materials shown in FIG. 12. “IP” in FIG. 12 refers to ovalbumin sensitization treatment by the intraperitoneal administration of ovalbumin/aluminum hydroxide, and “IH” refers to inhalation exposure treatment of ovalbumin, and “PO” refers to the administration of the test materials. […]\nAll mice were euthanized by intraperitoneal injection of pentobarbital (Hanrimu pharmaceutical, South Korea) at 50 mg/kg and the bronchi were excised on day 25 of the test. […] After preparing slide samples from 100 μL of BAL cell fluid using Cytospin (4° C., 1000 rpm×5 min), the cell numbers of inflammatory cells (eosinophils, macrophages, lymphocytes and neutrophils) present in the BAL fluid were counted using a Diff-Quik stain kit.\nThe supernatant of the BAL fluid stored was taken out of the super-cryostat and IL-4, IL-5 and IL-13 levels were measured as the pro-inflammatory cytokine contents in the supernatant of the BAL fluid. A quantitative ELISA kit (a product from R&D systems) and a microplate reader (a product from Bio-Rad Laboratories, Inc.) were used for the measurement and the measurement wavelength was 450 nm.",
  "data": [
    {"molecule": "CCCCCCOc1cc(C)c(O)c(C)c1C", "note": "[HTHQ, 2,3,5-trimethylhydroquinone-1-hexyl ether]", "values": [
      {"measurement": "IL-5 content in BAL fluid", "result": "significantly reduced"}
    ]}
  ]
}
